Reference: patent US20230340011A1 (Asteroid Therapeutics, priority 2022, published 2023)

Columns and labels:
SREBP-2 = SREBP-2 (Homo sapiens (Human), UniProt Q12772); assay: In vitro assay SREBP-2: PathHunter U2OS SREBP-2 Nuclear Translocation Cell Line, U18666A-stimulated; assay type: cell-based; details: PathHunter U2OS SREBP-2 nuclear translocation cells, U18666A 10 μM, overnight (16 hours)
LXRβ = LXRβ (Homo sapiens (Human), UniProt P55055); assay: In vitro assay LXRβ: PathHunter NHR CHO cells, LXRβ / Steroid Receptor Co-activator Peptide enzyme fragment complementation; assay type: cell-based; details: PathHunter NHR CHO cells, full-length human LXRβ and SRCP, chemiluminescent signal; read-out: LXRβ PPI
In short: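 Enzyme fragment complementation read-out: CHO cells stably expressing ProLink-tagged full-length human LXRβ plus nuclear enzyme acceptor–SRCP fusion, seeded and held overnight at 37° C. Medium with charcoal-dextran filtered serum; final vehicle 1%. Chemiluminescence measured after signal generation.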

Chain of LXRβ (P55055 whole entry, the tested form may be a part): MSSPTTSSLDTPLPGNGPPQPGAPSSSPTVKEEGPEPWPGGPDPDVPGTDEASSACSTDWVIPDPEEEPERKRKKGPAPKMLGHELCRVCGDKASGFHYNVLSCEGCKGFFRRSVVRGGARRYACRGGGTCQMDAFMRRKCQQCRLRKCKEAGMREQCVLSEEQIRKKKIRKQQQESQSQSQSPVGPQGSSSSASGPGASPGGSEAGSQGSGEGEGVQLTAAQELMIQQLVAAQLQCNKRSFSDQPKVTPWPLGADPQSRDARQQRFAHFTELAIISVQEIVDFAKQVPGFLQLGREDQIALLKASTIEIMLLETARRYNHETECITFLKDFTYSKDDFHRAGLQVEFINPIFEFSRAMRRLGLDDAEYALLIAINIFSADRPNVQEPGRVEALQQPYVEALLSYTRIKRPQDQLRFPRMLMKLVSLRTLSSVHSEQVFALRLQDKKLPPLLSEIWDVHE

Row | SMILES | IC50 (SREBP-2) [nM] | EC50 (LXRβ) [nM]
1 | CC(O)c1cccnc1CC[C@@H](C)[C@H]1CC[C@H]2[C@@H]3CC=C4C[C@@H](O)CC[C@]4(C)[C@H]3CC[C@]12C (stereo partly drawn) [Example 455, (3S,8S,9S,10R,13R,14S,17R)-17-((2R)-4-(3-(1-hydroxyethyl)pyridin-2-yl)butan-2-yl)-10,13-dimethyl-2,3,4,7,8,9,10,11,12,13,14,15,16,17-tetradecahydro-1H-cyclopenta[a]phenanthren-3-ol] | < 250 | < 250
2 | COC(C)C1CCN(C(=O)CC[C@@H](C)[C@H]2CC[C@H]3[C@@H]4CC=C5C[C@@H](O)CC[C@]5(C)[C@H]4CC[C@]23C)CC1 (stereo partly drawn) [Example 469, (4R)-4-((3S,8S,9S,10R,13R,14S,17R)-3-hydroxy-10,13-dimethyl-2,3,4,7,8,9,10,11,12,13,14,15,16,17-tetradecahydro-1H-cyclopenta[a]phenanthren-17-yl)-1-(4-(1-methoxyethyl)piperidin-1-yl)pentan-1-one] | < 250 | 250 to 1000
3 | C[C@H](CCC(=O)N1CCN(c2cncn2C)CC1)[C@H]1CC[C@H]2[C@@H]3CC=C4C[C@@H](O)CC[C@]4(C)[C@H]3CC[C@]12C [Example 481, (4R)-4-[(1R,3aS,3bS,7S,9aR,9bS,11aR)-7-hydroxy-9a,11a-dimethyl-1H,2H,3H,3aH,3bH,4H,6H,7H,8H,9H,9aH,9bH,10H,11H,11aH-cyclopenta[a]phenanthren-1-yl]-1-[4-(1-methyl-1H-imidazol-5-yl)piperazin-1-yl]pentan-1-one] | < 250 | > 10000
4 | Cc1nnc(N2CCN(C(=O)CC[C@@H](C)[C@H]3CC[C@H]4[C@@H]5CC=C6C[C@@H](O)CC[C@]6(C)[C@H]5CC[C@]34C)CC2)o1 [Example 482, (R)-4-((3S,8S,9S,10R,13R,14S,17R)-3-hydroxy-10,13-dimethyl-2,3,4,7,8,9,10,11,12,13,14,15,16,17-tetradecahydro-1H-cyclopenta[a]phenanthren-17-yl)-1-(4-(5-methyl-1,3,4-oxadiazol-2-yl)piperazin-1-yl)pentan-1-one] | < 250 | > 10000
5 | C[C@H](CCC(=O)N1CCN(c2ccnnc2)CC1)[C@H]1CC[C@H]2[C@@H]3CC=C4C[C@@H](O)CC[C@]4(C)[C@H]3CC[C@]12C [Example 487, (R)-4-((3S,8S,9S,10R,13R,14S,17R)-3-hydroxy-10,13-dimethyl-2,3,4,7,8,9,10,11,12,13,14,15,16,17-tetradecahydro-1H-cyclopenta[a]phenanthren-17-yl)-1-(4-(pyridazin-4-yl)piperazin-1-yl)pentan-1-one] | < 250 | > 10000
6 | Cc1noc(N2CCN(C(=O)CC[C@@H](C)[C@H]3CC[C@H]4[C@@H]5CC=C6C[C@@H](O)CC[C@]6(C)[C@H]5CC[C@]34C)CC2)n1 [Example 495, (R)-4-((3S,8S,9S,10R,13R,14S,17R)-3-hydroxy-10,13-dimethyl-2,3,4,7,8,9,10,11,12,13,14,15,16,17-tetradecahydro-1H-cyclopenta[a]phenanthren-17-yl)-1-(4-(3-methyl-1,2,4-oxadiazol-5-yl)piperazin-1-yl)pentan-1-one] | < 250 | > 10000
7 | Cc1cc(N2CCN(C(=O)CC[C@@H](C)[C@H]3CC[C@H]4[C@@H]5CC=C6C[C@@H](O)CC[C@]6(C)[C@H]5CC[C@]34C)CC2)sn1 [Example 497, (R)-4-((3S,8S,9S,10R,13R,14S,17R)-3-hydroxy-10,13-dimethyl-2,3,4,7,8,9,10,11,12,13,14,15,16,17-tetradecahydro-1H-cyclopenta[a]phenanthren-17-yl)-1-(4-(3-methylisothiazol-5-yl)piperazin-1-yl)pentan-1-one] | < 250 | > 10000
8 | Cc1cncnc1N1CCN(C(=O)CC[C@@H](C)[C@H]2CC[C@H]3[C@@H]4CC=C5C[C@@H](O)CC[C@]5(C)[C@H]4CC[C@]23C)CC1 [Example 508, (R)-4-((3S,8S,9S,10R,13R,14S,17R)-3-hydroxy-10,13-dimethyl-2,3,4,7,8,9,10,11,12,13,14,15,16,17-tetradecahydro-1H-cyclopenta[a]phenanthren-17-yl)-1-(4-(5-methylpyrimidin-4-yl)piperazin-1-yl)pentan-1-one] | < 250 | > 10000
9 | C[C@H](CCC(=O)N1CCN(C(=O)C2CCCC2)CC1)[C@H]1CC[C@H]2[C@@H]3CC=C4C[C@@H](O)CC[C@]4(C)[C@H]3CC[C@]12C [Example 515, (R)-1-(4-(cyclopentanecarbonyl)piperazin-1-yl)-4-((3S,8S,9S,10R,13R,14S,17R)-3-hydroxy-10,13-dimethyl-2,3,4,7,8,9,10,11,12,13,14,15,16,17-tetradecahydro-1H-cyclopenta[a]phenanthren-17-yl)pentan-1-one] | < 250 | > 10000
10 | C[C@H](CCC(=O)N1CCN(c2ccn(C3CC3)c2)CC1)[C@H]1CC[C@H]2[C@@H]3CC=C4C[C@@H](O)CC[C@]4(C)[C@H]3CC[C@]12C [Example 516, (R)-1-(4-(1-cyclopropyl-1H-pyrrol-3-yl)piperazin-1-yl)-4-((3S,8S,9S,10R,13R,14S,17R)-3-hydroxy-10,13-dimethyl-2,3,4,7,8,9,10,11,12,13,14,15,16,17-tetradecahydro-1H-cyclopenta[a]phenanthren-17-yl)pentan-1-one] | < 250 | > 10000
11 | CCC1(OC)CCCN(C(=O)CC[C@@H](C)[C@H]2CC[C@H]3[C@@H]4CC=C5C[C@@H](O)CC[C@]5(C)[C@H]4CC[C@]23C)C1 (stereo partly drawn) [Example 519, (R)-1-((R)-3-ethyl-3-methoxypiperidin-1-yl)-4-((3S,8S,9S,10R,13R,14S,17R)-3-hydroxy-10,13-dimethyl-2,3,4,7,8,9,10,11,12,13,14,15,16,17-tetradecahydro-1H-cyclopenta[a]phenanthren-17-yl)pentan-1-one] | < 250 | 1000 to 10000
12 | C[C@H](CCC(=O)N1CCN(C(=O)c2cn(C)cn2)CC1)[C@H]1CC[C@H]2[C@@H]3CC=C4C[C@@H](O)CC[C@]4(C)[C@H]3CC[C@]12C [Example 538, (4R)-4-[(1R,3aS,3bS,7S,9aR,9bS,11aR)-7-hydroxy-9a,11a-dimethyl-1H,2H,3H,3aH,3bH,4H,6H,7H,8H,9H,9aH,9bH,10H,11H,11aH-cyclopenta[a]phenanthren-1-yl]-1-[4-(1-methyl-1H-imidazole-4-carbonyl)piperazin-1-yl]pentan-1-one] | < 250 | > 10000
13 | C[C@H](CCC(=O)N1CCN(C(=O)c2ccn(C)n2)CC1)[C@H]1CC[C@H]2[C@@H]3CC=C4C[C@@H](O)CC[C@]4(C)[C@H]3CC[C@]12C [Example 539, (4R)-4-[(1R,3aS,3bS,7S,9aR,9bS,11aR)-7-hydroxy-9a,11a-dimethyl-1H,2H,3H,3aH,3bH,4H,6H,7H,8H,9H,9aH,9bH,10H,11H,11aH-cyclopenta[a]phenanthren-1-yl]-1-[4-(1-methyl-1H-pyrazole-3-carbonyl)piperazin-1-yl]pentan-1-one] | < 250 | > 10000
14 | Cc1nnc(C(=O)N2CCN(C(=O)CC[C@@H](C)[C@H]3CC[C@H]4[C@@H]5CC=C6C[C@@H](O)CC[C@]6(C)[C@H]5CC[C@]34C)CC2)o1 [Example 540, (R)-4-((3S,8S,9S,10R,13R,14S,17R)-3-hydroxy-10,13-dimethyl-2,3,4,7,8,9,10,11,12,13,14,15,16,17-tetradecahydro-1H-cyclopenta[a]phenanthren-17-yl)-1-(4-(5-methyl-1,3,4-oxadiazole-2-carbonyl)piperazin-1-yl)pentan-1-one] | < 250 | > 10000
15 | C[C@H](CCC(=O)N(C)CCc1cccnc1)[C@H]1CC[C@H]2[C@@H]3CC=C4C[C@@H](O)CC[C@]4(C)[C@H]3CC[C@]12C [Example 543, (R)-4-((3S,8S,9S,10R,13R,14S,17R)-3-hydroxy-10,13-dimethyl-2,3,4,7,8,9,10,11,12,13,14,15,16,17-tetradecahydro-1H-cyclopenta[a]phenanthren-17-yl)-N-methyl-N-(2-(pyridin-3-yl)ethyl)pentanamide] | < 250 | 250 to 1000
16 | C[C@H](CCC(=O)N(C)CCc1nccs1)[C@H]1CC[C@H]2[C@@H]3CC=C4C[C@@H](O)CC[C@]4(C)[C@H]3CC[C@]12C [Example 545, (R)-4-((3S,8S,9S,10R,13R,14S,17R)-3-hydroxy-10,13-dimethyl-2,3,4,7,8,9,10,11,12,13,14,15,16,17-tetradecahydro-1H-cyclopenta[a]phenanthren-17-yl)-N-methyl-N-(2-(thiazol-2-yl)ethyl)pentanamide] | 250 to 1000 | 250 to 1000
17 | C[C@H](CCC(=O)N1CCC(OCc2ccncc2)CC1)[C@H]1CC[C@H]2[C@@H]3CC=C4C[C@@H](O)CC[C@]4(C)[C@H]3CC[C@]12C [Example 546, (R)-4-((3S,8S,9S,10R,13R,14S,17R)-3-hydroxy-10,13-dimethyl-2,3,4,7,8,9,10,11,12,13,14,15,16,17-tetradecahydro-1H-cyclopenta[a]phenanthren-17-yl)-1-(4-(pyridin-4-ylmethoxy)piperidin-1-yl)pentan-1-one] | < 250 | > 10000
18 | C[C@H](CCC(=O)N(c1ccncc1)C1CC1)[C@H]1CC[C@H]2[C@@H]3CC=C4C[C@@H](O)CC[C@]4(C)[C@H]3CC[C@]12C [Example 548, (4R)-4-[(1R,3aS,3bS,7S,9aR,9bS,11aR)-7-hydroxy-9a,11a-dimethyl-1H,2H,3H,3aH,3bH,4H,6H,7H,8H,9H,9aH,9bH,10H,11H,11aH-cyclopenta[a]phenanthren-1-yl]-N-cyclopropyl-N-(pyridin-4-yl)pentanamide] | < 250 | 250 to 1000
